Test results published in publication PMC9607343, “Synthesis, Conformational Analysis and Evaluation of the 2-aryl-4-(4-bromo-2-hydroxyphenyl)benzo[1,5]thiazepines as Potential α-Glucosidase and/or α-Amylase Inhibitors” (Molecules, 2022).

Legend:
[1] = tested on: α-glucosidase; assay: In vitro α-glucosidase inhibitory assay (PNP-G substrate); assay type: biochemical; details: for SI (selectivity index): SI = IC50(α-glucosidase)/IC50(α-amylase); for IC50: three independent experiments, acarbose positive control, read-out: IC50 Values (µM ± SD) α-Glucosidase
Method: (§1) The IC50 values (μM) represented in Table 3 were calculated from the log dose-inhibition curves and are expressed as means ± standard deviations (SD) of three independent experiments. […] Inhibitors of α-glucosidase with mild inhibitory activity against α-amylase, on the other hand, constitute one of the major therapeutic strategies for the treatment of T2DM.
All the tests and analyses were performed in triplicates following a literature method described in our previous study. The stock solutions of the test compounds (200 µM) were prepared in DMSO, followed by dilution with a 100 mM phosphate buffer to obtain the concentrations of 100 µM. […] The enzyme solution (0.48 u/mL α-glucosidase, 17 µL); phosphate buffer (100 mM, pH 6.8; 50 µL); and test sample in DMSO (17 µL) were incubated at 37 °C for 10 min. After pre-incubation, 17 µL of 2 mM p-nitrophenyl-α-d-glucopyranoside (PNP-G) was added to each of the wells containing reaction mixtures to initiate the reaction. The absorbance was measured at 405 nm using a Bio-Rad microplate reader. The IC50 concentration was calculated using the AAT Bioquest online calculator.

[2] = target: α-amylase; assay: In vitro α-amylase inhibitory assay (CNP-G3 substrate); assay type: biochemical; details: three independent experiments; acarbose positive control; read-out: IC50 Values (µM ± SD) α-Amylase
Method: as §1
The α-amylase inhibitory assay was performed in 96-well microplates using a final volume of 200 μL, following a procedure described in the literature study. The enzyme assay was performed with a phosphate buffer ([…]) containing 0.02% NaN3 and adjusted to pH 6.0 with 2.0 M phosphoric acid. […] The enzyme solution (2.0 u/mL α-amylase, 5 µL); phosphate buffer ([…], pH 6.0; 175 µL); and 10 µL test sample were incubated at 37 °C for 10 min. After pre-incubation, 10 µL of 10 mM of 2-chloro-4-nitrophenyl-α-D-maltotrioside (CNP-G3) was added to each of the wells containing reaction mixtures to initiate the reaction. The absorbance was measured at 405 nm using a Bio-Rad microplate reader. The IC50 values were calculated using the AAT Bioquest online calculator.

## CC(C)c1ccc(C2CC(c3cc(Br)ccc3O)=Nc3ccccc3S2)cc1 (centres unmarked) [Compound 2f, 4-Bromo-2-((E)-2,3-dihydro-2-(4-isopropylphenyl)benzo[b][1,5]thiazepine-4-yl)phenol]
[1]
  SI (selectivity index): 0.67
  IC50: 6.54 ± 0.11 µM
[2]
  IC50: 9.71 ± 0.5 µM
other
  melting point: 126 to 131 °C

## COc1ccc(C2CC(c3cc(Br)ccc3O)=Nc3ccccc3S2)cc1 (centres unmarked) [Compound 2e, 4-Bromo-2-((E)-2,3-dihydro-2-(4-methoxyphenyl)benzo[b][1,5]thiazepine-4-yl)phenol]
[1]
  SI (selectivity index): 0.29
  IC50: 15.87 ± 0.13 µM
[2]
  IC50: 55.14 ± 0.19 µM
other
  melting point: 131 to 136 °C

## Oc1ccc(Br)cc1C1=Nc2ccccc2SC(c2ccc(F)cc2)C1 (centres unmarked) [Compound 2b, 4-Bromo-2-((E)-2,3-dihydro-2-(4-fluorophenyl)benzo[b][1,5]thiazepine-4-yl)phenol]
[1]
  SI (selectivity index): 1.09
  IC50: 17.2 ± 0.07 µM
[2]
  IC50: 15.85 ± 0.05 µM
other
  melting point: 128 to 134 °C

## Oc1ccc(Br)cc1C1=Nc2ccccc2SC(c2ccc(Cl)cc2)C1 (centres unmarked) [Compound 2c, 4-Bromo-2-((E)-2,3-dihydro-2-(4-chlorophenyl)benzo[b][1,5]thiazepine-4-yl)phenol]
[1]
  SI (selectivity index): 0.12
  IC50: 2.69 ± 0.27 µM
[2]
  IC50: 22.86 ± 0.04 µM
other
  melting point: 167 to 172 °C

## Oc1ccc(Br)cc1C1=Nc2ccccc2SC(c2ccccc2)C1 (centres unmarked) [Compound 2a, 4-Bromo-2-((E)-2,3-dihydro-2-phenylbenzo[b][1,5]thiazepine-4-yl)phenol]
[1]
  IC50: 6.7 ± 0.15 µM
[2]
  IC50: 20.87 ± 0.08 µM
other
  melting point: 128 to 137 °C

## COc1cccc(C2CC(c3cc(Br)ccc3O)=Nc3ccccc3S2)c1 (centres unmarked) [Compound 2d, 4-Bromo-2-((E)-2,3-dihydro-2-(3-methoxyphenyl)benzo[b][1,5]thiazepine-4-yl)phenol]
[1]
  SI (selectivity index): 0.29
  IC50: 13.2 ± 1 µM
[2]
  IC50: 46.16 ± 0.31 µM
other
  melting point: 161 to 167 °C
